According to PubChem BioAssay AID248 (DTP/NCI, 2004):
Where “and” joins values, the source holds several entries; their conditions need not be identical. Identical values can stand only once. Toxic doses and inconclusive results are not listed. No stated cut-off is given here; in the data, active means T/C of 150% or more; inactive means T/C below 125%.

Test system: L1210 leukemia ip in BDF1 mice, survival T/C
Test: NCI In Vivo Anticancer Drug Screen. Data for tumor model L1210 Leukemia (intraperitoneal) in B6D2F1 (BDF1) mice
Conditions: endpoint: mean survival time, higher = longer survival
Summary of the method: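 Tumor was transplanted into mice, which were then dosed with test compound or vehicle alone. Survival was recorded for each group, and the treated figure was expressed relative to the control figure.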

[1] = dose: 100.0 mg/kg/injection, schedule: Q04DX002 (ip), vehicle: saline
[2] = dose: 200.0 mg/kg/injection, schedule: Q04DX002 (ip), vehicle: saline
[3] = dose: 100.0 mg/kg/injection, schedule: Q04DX002 (ip), vehicle: saline with Tween-80
[4] = dose: 200.0 mg/kg/injection, schedule: Q04DX002 (ip), vehicle: saline with Tween-80
[5] = dose: 400.0 mg/kg/injection, schedule: Q04DX002 (ip), vehicle: saline with Tween-80
[6] = dose: 100.0 mg/kg/injection, schedule: Q04DX003 (ip), vehicle: saline with Tween-80
[7] = dose: 200.0 mg/kg/injection, schedule: Q04DX003 (ip), vehicle: saline with Tween-80
[8] = dose: 400.0 mg/kg/injection, schedule: Q04DX003 (ip), vehicle: saline with Tween-80
[9] = dose: 50.0 mg/kg/injection, schedule: Q01DX001 (ip), vehicle: saline
[10] = dose: 100.0 mg/kg/injection, schedule: Q01DX001 (ip), vehicle: saline
[11] = dose: 200.0 mg/kg/injection, schedule: Q01DX001 (ip), vehicle: saline
[12] = dose: 100.0 mg/kg/injection, schedule: Q01DX009 (ip), vehicle: Klucel (hydroxypropylcellulose) (HPC)
[13] = dose: 100.0 mg/kg/injection, schedule: Q04DX003 (ip), vehicle: Klucel (hydroxypropylcellulose) (HPC)
[14] = dose: 200.0 mg/kg/injection, schedule: Q01DX009 (ip), vehicle: Klucel (hydroxypropylcellulose) (HPC)
[15] = dose: 200.0 mg/kg/injection, schedule: Q04DX003 (ip), vehicle: Klucel (hydroxypropylcellulose) (HPC)
[16] = dose: 400.0 mg/kg/injection, schedule: Q04DX003 (ip), vehicle: Klucel (hydroxypropylcellulose) (HPC)
[17] = dose: 50.0 mg/kg/injection, schedule: Q01DX009 (ip), vehicle: saline with Tween-80
[18] = dose: 100.0 mg/kg/injection, schedule: Q01DX009 (ip), vehicle: saline with Tween-80

Measured: T/C

C=NN1CCOC1=O
inactive: [1] 106 % of control | [2] 91 % of control | dose: 400.0 mg/kg/injection, schedule: Q04DX002 (ip), vehicle: saline 111 % of control

Nc1ncnc2c(C(=O)O)c[nH]c12
inactive: dose: 100.0 mg/kg/injection, schedule: Q01DX001 (ip), vehicle: other 98 % of control | dose: 200.0 mg/kg/injection, schedule: Q01DX001 (ip), vehicle: other 110 % of control | dose: 400.0 mg/kg/injection, schedule: Q01DX001 (ip), vehicle: other 111 % of control

OC1C(Br)CC(Br)C1O (stereo unspecified)
inactive: [3] 97 % of control | [4] 93 % of control | [5] 101 % of control

CCN(CC)CCOc1cccc(OC)c1
inactive: dose: 25.0 mg/kg/injection, schedule: Q01DX009 (ip), vehicle: saline 95 % of control | dose: 50.0 mg/kg/injection, schedule: Q01DX009 (ip), vehicle: saline 96 % of control | dose: 75.0 mg/kg/injection, schedule: Q01DX009 (ip), vehicle: saline 95 % of control and 108 % of control

O=c1cc(Nc2ccccc2Cl)[nH]c(=O)[nH]1
inactive: [6] 104 % of control | [7] 98 % of control | [8] 95 % of control

COc1cc(N)c2ncccc2c1[N+](=O)[O-]
inactive: [9] 112 % of control | [10] 106 % of control | [11] 106 % of control | dose: 400.0 mg/kg/injection, schedule: Q01DX001 (ip), vehicle: saline 104 % of control

C1=NC(c2ccccc2)=CN(C2CCCC2)C1(c1ccccc1)C1CCCC1 (stereo unspecified)
inactive: dose: 50.0 mg/kg/injection, schedule: Q04DX002 (ip), vehicle: saline 105 % of control | dose: 100.0 mg/kg/injection, schedule: Q04DX002 (ip), vehicle: Klucel (hydroxypropylcellulose) (HPC) 98 % of control | [1] 108 % of control | dose: 200.0 mg/kg/injection, schedule: Q04DX002 (ip), vehicle: Klucel (hydroxypropylcellulose) (HPC) 98 % of control | [2] 108 % of control | dose: 400.0 mg/kg/injection, schedule: Q04DX002 (ip), vehicle: Klucel (hydroxypropylcellulose) (HPC) 109 % of control

O=c1c(N=Nc2ccc(Br)cc2)c(O)n(-c2ccccc2)c(=S)n1-c1ccccc1
inactive: dose: 100.0 mg/kg/injection, schedule: Q01DX001 (ip), vehicle: Klucel (hydroxypropylcellulose) (HPC) 105 % of control | dose: 200.0 mg/kg/injection, schedule: Q01DX001 (ip), vehicle: Klucel (hydroxypropylcellulose) (HPC) 102 % of control | dose: 400.0 mg/kg/injection, schedule: Q01DX001 (ip), vehicle: Klucel (hydroxypropylcellulose) (HPC) 102 % of control

O=c1oc2c3ccccc3c3ccccc3c2o1
inactive: dose: 25.0 mg/kg/injection, schedule: Q01DX009 (ip), vehicle: Klucel (hydroxypropylcellulose) (HPC) 113 % of control | dose: 50.0 mg/kg/injection, schedule: Q01DX009 (ip), vehicle: Klucel (hydroxypropylcellulose) (HPC) 103 % of control | [12] 94 % of control

COC(=O)CCSCCC(=O)OC
inactive: [12] 105 % of control | [13] 103 % of control | [14] 97 % of control | [15] 101 % of control | dose: 400.0 mg/kg/injection, schedule: Q01DX009 (ip), vehicle: Klucel (hydroxypropylcellulose) (HPC) 95 % of control | [16] 105 % of control

CCCC1CCCC(=O)N1 (stereo unspecified)
inactive: dose: 75.0 mg/kg/injection, schedule: Q01DX001 (ip), vehicle: saline 98 % of control | dose: 150.0 mg/kg/injection, schedule: Q01DX001 (ip), vehicle: saline 98 % of control

COC(=O)C1C=Cc2ccccc21 (stereo unspecified)
inactive: [6] 104 % of control | [7] 93 % of control | [8] 102 % of control

CC(C)=CCC/C(C)=C/CNC(=O)/C=C/C(=O)O
inactive: dose: 25.0 mg/kg/injection, schedule: Q01DX009 (ip), vehicle: saline with Tween-80 98 % of control | [17] 93 % of control | dose: 50.0 mg/kg/injection, schedule: Q04DX003 (ip), vehicle: saline with Tween-80 91 % of control | [18] 100 % of control and 90 % of control | [6] 94 % of control and 98 % of control | dose: 200.0 mg/kg/injection, schedule: Q01DX009 (ip), vehicle: saline with Tween-80 105 % of control | [7] 86 % of control | dose: 400.0 mg/kg/injection, schedule: Q01DX009 (ip), vehicle: saline with Tween-80 94 % of control | [8] 97 % of control

CN1CN(c2ccccc2)C2(CCN(C3(c4ccccc4)CCCCC3)CC2)C1=O
inactive: [9] 102 % of control | [10] 92 % of control | [11] 94 % of control

CC1(c2ccccc2)O[C@@H]2C[C@H]3[C@@H]4CCC5=CC(=O)C=C[C@]5(C)[C@@]4(F)[C@@H](O)C[C@]3(C)[C@]2(C(=O)CO)O1 (stereo partly specified)
inactive: dose: 100.0 mg/kg/injection, schedule: Q01DX001 (sc), vehicle: steriod suspending solution 117 % of control | dose: 200.0 mg/kg/injection, schedule: Q01DX001 (sc), vehicle: steriod suspending solution 98 % of control | dose: 400.0 mg/kg/injection, schedule: Q01DX001 (sc), vehicle: steriod suspending solution 107 % of control

Cc1ccc2[c](c1)[Sn]([c]1ccccc1)([c]1ccccc1)[c]1cc(C)ccc1N2C
inactive: dose: 100.0 mg/kg/injection, schedule: Q01DX001 (ip), vehicle: steriod suspending solution 96 % of control | dose: 200.0 mg/kg/injection, schedule: Q01DX001 (ip), vehicle: steriod suspending solution 94 % of control | dose: 400.0 mg/kg/injection, schedule: Q01DX001 (ip), vehicle: steriod suspending solution 96 % of control

O=C(O)COc1ccc(C2CCc3ccccc32)cc1 (stereo unspecified)
inactive: dose: 75.0 mg/kg/injection, schedule: Q01DX001 (ip), vehicle: Klucel (hydroxypropylcellulose) (HPC) 104 % of control | dose: 150.0 mg/kg/injection, schedule: Q01DX001 (ip), vehicle: Klucel (hydroxypropylcellulose) (HPC) 101 % of control | dose: 300.0 mg/kg/injection, schedule: Q01DX001 (ip), vehicle: Klucel (hydroxypropylcellulose) (HPC) 101 % of control

Cc1cc(C)c(B2OB(c3c(C)cc(C)cc3C)O2)c(C)c1
inactive: [12] 95 % of control | [13] 96 % of control | [14] 97 % of control | [15] 103 % of control | [16] 91 % of control

CC(O)C(O)C(=O)OCc1ccccc1 (stereo unspecified)
inactive: dose: 100.0 mg/kg/injection, schedule: Q01DX009 (ip), vehicle: saline 117 % of control | dose: 100.0 mg/kg/injection, schedule: Q04DX003 (ip), vehicle: saline 101 % of control | dose: 200.0 mg/kg/injection, schedule: Q01DX009 (ip), vehicle: saline 102 % of control | dose: 200.0 mg/kg/injection, schedule: Q04DX003 (ip), vehicle: saline 103 % of control | dose: 400.0 mg/kg/injection, schedule: Q01DX009 (ip), vehicle: saline 110 % of control | dose: 400.0 mg/kg/injection, schedule: Q04DX003 (ip), vehicle: saline 98 % of control

O=[N+]([O-])c1ccc(NCc2ccccc2)nc1
inactive: [3] 91 % of control | dose: 111.0 mg/kg/injection, schedule: Q01DX Z (ip), vehicle: carboxymethylcellulose (CMC) 111 % of control | dose: 166.7 mg/kg/injection, schedule: Q01DX Z (ip), vehicle: carboxymethylcellulose (CMC) 98 % of control | [4] 97 % of control | dose: 250.0 mg/kg/injection, schedule: Q01DX Z (ip), vehicle: carboxymethylcellulose (CMC) 101 % of control | dose: 375.0 mg/kg/injection, schedule: Q01DX Z (ip), vehicle: carboxymethylcellulose (CMC) 100 % of control | [5] 103 % of control

O=C1Nc2ccccc2C1=Nc1cccc2ncccc12
inactive: dose: 100.0 mg/kg/injection, schedule: Q01DX001 (ip), vehicle: acetone 97 % of control | dose: 200.0 mg/kg/injection, schedule: Q01DX001 (ip), vehicle: acetone 93 % of control | dose: 400.0 mg/kg/injection, schedule: Q01DX001 (ip), vehicle: acetone 100 % of control

COc1cc2c(cc1[N+](=O)[O-])C(=O)CCCC2
inactive: [17] 88 % of control | [18] 92 % of control
